{
  "source": "patent US20140005160A1",
  "about": "“Method for Treating Refractory Cancer” (priority 2010, published 2014)",
  "key": {"[1]": {"test_system": "human melanoma cell line A375", "experiment": "ATCC MTT Cell Proliferation Assay, A375", "method": "(§6) Stock cultures were allowed to grow to 70-80% confluence for this study. […] ZR-75-1 plates were seeded with 3,000 cells/well, and the cells were grown in RPMI1640 medium containing 1% (1M HEPES), 1% sodium pyruvate, 1% (45% Glucose), 10% FBS and 1% penicillin/strep/glutamine. Cultures were maintained in a 37° C. humidified 5% CO2/95% air atmosphere. […] 100 μl of medium was removed from each well at 72 hours post-treatment and 10 μl MTT reagent was added to each well. The plates were incubated at 37° C. for 4 hours and then 100 μl of detergent was added. The plates were left overnight at room temperature in the dark and was read on a plate reader using SoftMax® Pro (version 5.2, Molecular Devices).\n(§7) The absorbance data was analyzed as follows: Absorbance values were converted to Percent of Control and plotted against test agent concentrations for IC50 calculations using SoftMax® Pro (version 5.2, Molecular Devices). […] Percent of Control values were calculated by dividing the absorbance values for each test well by the No Drug Control average (column 11 values; cells+vehicle control) and multiplying by 100. Plots of Compound Concentration versus Percent of Control were analyzed using the 4-parameter equation to obtain IC50 values and other parameters that describe the sigmoidal dose response curve. […]"}, "[2]": {"test_system": "human renal cell line A498", "conditions": "A498, same manner as Example 2", "from_the_text": "See e.g., Mahalingam et al., Clin. Cancer Res., 16(1):141-153 (2010)."}, "HCT-116 p53 (−/−)": {"test_system": "HCT-116 p53 (−/−)", "conditions": "Colon HCT-116 p53 (−/−), 72 hours exposure, MTT", "procedure": "(§1) The colon carcinoma cell line HCT116 (HCT-116 p53 (+/+)) and the corresponding subline with deleted p53 genes (HCT-116 p53 (−/−)) were grown in McCoy's culture medium with 10% FCS. […] For cytotoxicity assays, cells were plated (2×10^3 cells in 100 μl/well) in 96-well plates and allowed to recover for 24 hours. […] The proportion of viable cells was determined by MTT assay following the manufacturer's recommendations (EZ4U, Biomedica, Vienna, Austria)."}, "HCT-116 p53 (+/+)": {"test_system": "HCT-116 p53 (+/+)", "conditions": "Colon HCT-116 p53 (+/+), 72 hours exposure, MTT", "procedure": "as §1"}, "[3]": {"test_system": "human lung carcinoma cell line A549", "experiment": "ATCC MTT Cell Proliferation Assay, A549", "type": "cell-based", "conditions": "for IC50 Ratio (A549/H1975): Table 5, ratio of IC50 in A549 to H1975"}, "[4]": {"test_system": "human lung carcinoma cell line NCI-H322M", "experiment": "ATCC MTT Cell Proliferation Assay, NCI-H322M", "type": "cell-based", "conditions": "for IC50: NCI-H322M (KRAS wild type), same manner as Example 2", "from_the_text": "(§2) Table 2 summarizes the results."}, "[5]": {"test_system": "breast cancer cell line MDA-MB-231", "experiment": "ATCC MTT Cell Proliferation Assay, MDA-MB-231", "type": "cell-based", "conditions": "for IC50: MDA-MB-231, same manner as Example 2 (Table 3); for IC50 Ratio (MDA-MB-231/MCF-7): ratio of IC50 in MDA-MB-231 to MCF-7"}, "[6]": {"test_system": "MVP- and MRP1-overexpressing subline SW-1573/2R120", "conditions": "PGP/MRP-1-overexpressing cell line (SW-1573/2R120), 72 hours, EZ4U MTT", "procedure": "(§3) The alveolar epithelial cell carcinoma cell line SW-1573 and its MVP- and MRP1-overexpressing subline SW-1573/2R120 were grown in DMEM medium supplemented with 10% fetal calf serum. See Elbling et al., Cytometry, 31:187-198 (1998). Cells were plated (2×10^3 cells in 100 μl/well) in 96-well plates and allowed to recover for 24 hours. […] The proportion of viable cells was determined by MTT assay following the manufacturer's recommendations (EZ4U, Biomedica, Vienna, Austria). […] PGP/MRP-1-overexpression confers resistance to drugs such as vincristine, vinblastine, vinorelbine, taxol, docetaxel, etoposide, mitoxantrone, doxorubincin, epirubicin, topotecan, irinotecan, methotrexate, and imatinib etc. See Fojo & Menefee, Ann. Oncol., 18 (Supplement 5):v3-v8 (2007)."}, "[7]": {"test_system": "alveolar epithelial cell carcinoma cell line SW-1573", "conditions": "SW1573 cell line, 72 hours, EZ4U MTT", "procedure": "as §3"}, "[8]": {"test_system": "breast cancer cell line MDA-MB-231", "conditions": "MDA-MB-231, 72 hours, EZ4U MTT (Table 4)", "procedure": "(§4) Breast cancer cell line MDA-MB-231 and its corresponding bcrp-overexpressing line MDA-MB-231/bcrp were plated (2×10^3 cells in 100 μl/well) in 96-well plates and allowed to recover for 24 hours. […] The proportion of viable cells was determined by MTT assay following the manufacturer's recommendations (EZ4U, Biomedica, Vienna, Austria), and IC50 values were calculated. […] BCRP-overexpression confers resistance to drugs such as irinotecan, topotecan, mitoxantrone, methotrexate, camptothecins, gefitinib and imatinib etc. See Fojo & Menefee, Ann. Oncol., 18 (Supplement 5):v3-v8 (2007)."}, "[9]": {"test_system": "bcrp-overexpressing line MDA-MB-231/bcrp", "conditions": "72 hours, EZ4U MTT", "procedure": "as §4"}, "[10]": {"test_system": "human breast carcinoma cell line ZR-75-1", "experiment": "ATCC MTT Cell Proliferation Assay, ZR-75-1", "type": "cell-based", "conditions": "for IC50: ZR-75-1, 72 hours, MTT; for IC50 Ratio (ZR-75-1/MX-1): ratio of IC50 in ZR-75-1 to MX-1", "method": "as §6\nThe absorbance data was analyzed as follows: Absorbance values were converted to Percent of Control and plotted against test agent concentrations for IC50 calculations using SoftMax® Pro (version 5.2, Molecular Devices). The plate blank signal average was subtracted from all wells prior to calculating the Percent of Control. Percent of Control values were calculated by dividing the absorbance values for each test well by the No Drug Control average (column 11 values; cells+vehicle control) and multiplying by 100. Plots of Compound Concentration versus Percent of Control were analyzed using the 4-parameter equation to obtain IC50 values and other parameters that describe the sigmoidal dose response curve.\nThe IC50 value for the test agent was estimated by curve-fitting the data using the following four parameter-logistic equation:\nwherein “Top” is the maximal % of control absorbance (100%), “Bottom” is the minimal % of control absorbance at the highest agent concentration (down to zero), Y is the Percent of Control absorbance, X is the test agent Concentration, IC50 is the concentration of agent that inhibits cell growth by 50% compared to the control cells, n is the slope of the curve."}, "[11]": {"test_system": "breast cancer cell line MCF-7", "experiment": "ATCC MTT Cell Proliferation Assay, MCF-7", "type": "cell-based", "conditions": "MCF-7, same manner as Example 2"}, "[12]": {"test_system": "human prostate cancer cell line PC-3 (prostate carcinoma)", "from_the_text": "(§5) In addition, the IC50 values of docetaxel in the LNCaP and PC-3 cell lines were obtained from published literature. […] See Domingo-Domenech et al., Clin. Cancer Res., 12(18):5578-5586 (2006); Blagosklonny et al., J. Urol., 163(3):1022-6 (2000)."}, "[13]": {"test_system": "human prostate cancer cell line LNCaP (prostate carcinoma)", "conditions": "same manner as Example 2", "from_the_text": "as §5"}, "[14]": {"test_system": "human breast cancer cell line MX-1", "experiment": "ATCC MTT Cell Proliferation Assay, MX-1", "type": "cell-based", "conditions": "MX-1, 72 hours", "method": "as §6, §7"}, "[15]": {"test_system": "human lung carcinoma cell line H1975", "experiment": "ATCC MTT Cell Proliferation Assay, H1975", "type": "cell-based", "conditions": "H1975 (KRAS wild type), same manner as Example 2", "from_the_text": "as §2"}, "LNCaP cell line": {"test_system": "LNCaP cell line", "conditions": "from Domingo-Domenech et al. 2006; cited from earlier work"}, "PC-3 cell line [16]": {"test_system": "PC-3 cell line", "experiment": "Published literature IC50 of docetaxel, PC-3", "type": "cell-based, human", "conditions": "ratio from published literature IC50 values"}, "PC-3 cell line [17]": {"test_system": "PC-3 cell line", "conditions": "PC-3, from Domingo-Domenech et al. 2006; cited from earlier work"}},
  "note": "Like-named read-outs stand apart in the source and are kept apart here.",
  "data": [
    {"smiles": "Cn1nnc2c(C(N)=O)ncn2c1=O", "note": "[temozolomide, reference compound]", "values": [
      {"measurement": "IC50", "setting": "[1]; Homo sapiens, A-375", "value": 369, "unit": "µM"}
    ]},
    {"smiles": "[Ga+3].[O-]c1cccc2cccnc12.[O-]c1cccc2cccnc12.[O-]c1cccc2cccnc12", "values": [
      {"measurement": "IC50", "setting": "[2]", "value": 32.9, "unit": "µM"},
      {"measurement": "IC50", "setting": "HCT-116 p53 (−/−)", "value": 1.7, "unit": "µM"},
      {"measurement": "IC50", "setting": "HCT-116 p53 (+/+)", "value": 1.8, "unit": "µM"},
      {"measurement": "IC50", "setting": "[3]; A549 (KRAS G12S), same manner as Example 2", "value": 1.11, "unit": "µM"},
      {"measurement": "IC50 Ratio (A549/H1975)", "setting": "[3]", "value": 0.31},
      {"measurement": "IC50", "setting": "[4]", "value": 4.95, "unit": "µM"},
      {"measurement": "IC50 Ratio (A549/H1975)", "setting": "[4]; Table 6, Test Drug column, row NCI-H322M", "value": 1.39},
      {"measurement": "IC50", "setting": "[5]", "value": 0.838, "unit": "µM"},
      {"measurement": "IC50 Ratio (MDA-MB-231/MCF-7)", "setting": "[5]", "value": 0.681},
      {"measurement": "IC50", "setting": "[6]", "value": 2.1, "unit": "µM"},
      {"measurement": "IC50", "setting": "[7]", "value": 1.7, "unit": "µM"},
      {"measurement": "IC50", "setting": "[8]", "value": 1.6, "unit": "µM"},
      {"measurement": "IC50", "setting": "[9]", "value": 1.8, "unit": "µM"},
      {"measurement": "IC50", "setting": "[10]", "value": 1.59, "unit": "µM"},
      {"measurement": "IC50 Ratio (ZR-75-1/MX-1)", "setting": "[10]", "value": 0.77},
      {"measurement": "IC50", "setting": "[11]", "value": 1.23, "unit": "µM"},
      {"measurement": "IC50", "setting": "[12]; PC-3, same manner as Example 2", "value": 1.79, "unit": "µM"},
      {"measurement": "IC50 Ratio (PC-3/LNCaP)", "setting": "[12]; ratio of IC50 in PC-3 to LNCaP", "value": 0.82},
      {"measurement": "IC50", "setting": "[13]", "value": 2.19, "unit": "µM"},
      {"measurement": "IC50", "setting": "[1]; A375, same manner as Example 2", "value": 1.95, "unit": "µM"},
      {"measurement": "IC50", "setting": "[14]", "value": 2.06, "unit": "µM"},
      {"measurement": "IC50", "setting": "[15]", "value": 3.55, "unit": "µM"}
    ]},
    {"smiles": "O=c1[nH]cc(F)c(=O)[nH]1", "note": "[5-FU, 5-fluorouracil, reference compound]", "values": [
      {"measurement": "IC50", "setting": "[10]; Homo sapiens", "value": 31.1, "unit": "µM"},
      {"measurement": "IC50 Ratio (ZR-75-1/MX-1)", "setting": "[10]", "value": 21.2},
      {"measurement": "IC50", "setting": "[14]; Homo sapiens", "value": 1.47, "unit": "µM"}
    ]},
    {"smiles": "CC(=O)O[C@H]1C(=O)[C@@]2(C)[C@H]([C@H](OC(=O)c3ccccc3)[C@]3(O)C[C@H](OC(=O)[C@H](O)[C@@H](NC(=O)c4ccccc4)c4ccccc4)C(C)=C1C3(C)C)[C@]1(OC(C)=O)CO[C@@H]1C[C@@H]2O", "note": "[Paclitaxel, paclitaxel, reference compound]", "values": [
      {"measurement": "IC50 Ratio (A549/H1975)", "setting": "[3]", "value": 1984},
      {"measurement": "IC50", "setting": "[15]; Homo sapiens, NCI-H1975", "value": 0.005, "unit": "µM"}
    ]},
    {"smiles": "N.N.[Cl][Pt][Cl]", "note": "[Cisplatin, cisplatin, reference compound]", "values": [
      {"measurement": "IC50", "setting": "[4]", "value": 52.3, "unit": "µM"},
      {"measurement": "IC50 Ratio (NCI-H322M/H1975)", "setting": "[4]; Table 6, cisplatin column", "value": 4.59},
      {"measurement": "IC50", "setting": "[5]", "value": 47.1, "unit": "µM"},
      {"measurement": "IC50 Ratio (MDA-MB-231/MCF-7)", "setting": "[5]", "value": 5.88},
      {"measurement": "IC50", "setting": "[11]", "value": 8.01, "unit": "µM"},
      {"measurement": "IC50", "setting": "[15]", "value": 11.4, "unit": "µM"}
    ]},
    {"smiles": "CC(=O)O[C@@]12CO[C@@H]1C[C@H](O)[C@@]1(C)C(=O)[C@H](O)C3=C(C)[C@@H](OC(=O)[C@H](O)[C@@H](NC(=O)OC(C)(C)C)c4ccccc4)C[C@@](O)([C@@H](OC(=O)c4ccccc4)[C@H]21)C3(C)C", "note": "[Docetaxel, docetaxel]", "values": [
      {"measurement": "IC50", "setting": "LNCaP cell line", "value": "0.0025 to 0.005", "unit": "µM"},
      {"measurement": "IC50 Ratio (PC-3/LNCaP/)", "setting": "PC-3 cell line [16]", "value": "12-20"},
      {"measurement": "IC50", "setting": "PC-3 cell line [17]", "value": "0.05 to 0.06", "unit": "µM"}
    ]}
  ]
}
